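Growth conditions: 96-well plates. Treatment: test compound, 48 hours, 5 concentrations. Analysis: linear interpolation between bracketing concentrations; unreached endpoints set to highest concentration. GI50 is the concentration that inhibits growth by half. TGI: concentration producing complete growth inhibition.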
How the values were obtained:
Test in all cases: growth of human tumour cells (NCI), 48 h
786-0 renal = test system: 786-0 renal
A549 NSCLC = test system: A549 NSCLC
ACHN renal = test system: ACHN renal
BT-549 breast = test system: BT-549 breast
CAKI-1 renal = test system: CAKI-1 renal
CCRF-CEM leukemia = test system: CCRF-CEM leukemia
COLO 205 colon = test system: COLO 205 colon
DU-145 prostate = test system: DU-145 prostate
EKVX NSCLC = test system: EKVX NSCLC
HCC-2998 colon = test system: HCC-2998 colon
HCT-116 colon = test system: HCT-116 colon
HCT-15 colon = test system: HCT-15 colon
HL-60(TB) leukemia = test system: HL-60(TB) leukemia
HOP-62 NSCLC = test system: HOP-62 NSCLC
HOP-92 NSCLC = test system: HOP-92 NSCLC
HT29 colon = test system: HT29 colon
IGROV1 ovarian = test system: IGROV1 ovarian
K-562 leukemia = test system: K-562 leukemia
KM12 colon = test system: KM12 colon
M14 melanoma = test system: M14 melanoma
MALME-3M melanoma = test system: MALME-3M melanoma
MCF7 breast = test system: MCF7 breast
MDA-MB-231 breast = test system: MDA-MB-231 breast
MDA-MB-435 = test system: MDA-MB-435
MOLT-4 leukemia = test system: MOLT-4 leukemia
NCI-H226 lung = test system: NCI-H226 lung
NCI-H23 lung = test system: NCI-H23 lung
NCI-H460 lung = test system: NCI-H460 lung
NCI-H522 lung = test system: NCI-H522 lung
NCI/ADR-RES ovarian = test system: NCI/ADR-RES ovarian
OVCAR-3 ovarian = test system: OVCAR-3 ovarian
OVCAR-4 ovarian = test system: OVCAR-4 ovarian
OVCAR-5 ovarian = test system: OVCAR-5 ovarian
OVCAR-8 ovarian = test system: OVCAR-8 ovarian
PC-3 prostate = test system: PC-3 prostate
RPMI-8226 leukemia = test system: RPMI-8226 leukemia
SF-268 CNS = test system: SF-268 CNS
SF-295 CNS = test system: SF-295 CNS
SF-539 CNS = test system: SF-539 CNS
SK-MEL-2 melanoma = test system: SK-MEL-2 melanoma
SK-MEL-28 melanoma = test system: SK-MEL-28 melanoma
SK-MEL-5 melanoma = test system: SK-MEL-5 melanoma
SK-OV-3 ovarian = test system: SK-OV-3 ovarian
SN12C renal = test system: SN12C renal
SNB-19 CNS = test system: SNB-19 CNS
SNB-75 CNS = test system: SNB-75 CNS
SR leukemia = test system: SR leukemia
SW-620 colon = test system: SW-620 colon
T-47D breast = test system: T-47D breast
TK-10 renal = test system: TK-10 renal
U251 CNS = test system: U251 CNS
UACC-62 melanoma = test system: UACC-62 melanoma

Structure (SMILES): CCOC(=O)c1c2c(n(Cc3ccc(Cl)cc3Cl)c1C)-c1nc(Cc3ccccc3)[nH]c1C(=O)C2=O
- GI50 (786-0 renal): 1.82 µM
- TGI (786-0 renal): 3.47 µM
- GI50 (A549 NSCLC): 3.84 µM
- TGI (A549 NSCLC): > 100 µM
- GI50 (ACHN renal): 1.75 µM
- TGI (ACHN renal): 3.17 µM
- GI50 (BT-549 breast): 2.07 µM
- TGI (BT-549 breast): 3.87 µM
- GI50 (CAKI-1 renal): 2.31 µM
- TGI (CAKI-1 renal): 4.01 µM
- GI50 (CCRF-CEM leukemia): 1.81 µM
- TGI (CCRF-CEM leukemia): 4.45 µM
- GI50 (COLO 205 colon): 2.42 µM
- TGI (COLO 205 colon): 5.85 µM
- GI50 (DU-145 prostate): 1.78 µM
- TGI (DU-145 prostate): 3.3 µM
- GI50 (EKVX NSCLC): 2.24 µM
- TGI (EKVX NSCLC): 4.49 µM
- GI50 (HCC-2998 colon): 1.93 µM
- TGI (HCC-2998 colon): 3.78 µM
- GI50 (HCT-116 colon): 1.68 µM
- TGI (HCT-116 colon): 3.07 µM
- GI50 (HCT-15 colon): 2.15 µM
- TGI (HCT-15 colon): 4.64 µM
- GI50 (HL-60(TB) leukemia): 1.57 µM
- TGI (HL-60(TB) leukemia): 3.71 µM
- GI50 (HOP-62 NSCLC): 2.32 µM
- TGI (HOP-62 NSCLC): 5.48 µM
- GI50 (HOP-92 NSCLC): 1.62 µM
- TGI (HOP-92 NSCLC): 3.06 µM
- GI50 (HT29 colon): 2.72 µM
- TGI (HT29 colon): 8.61 µM
- GI50 (IGROV1 ovarian): 2.31 µM
- TGI (IGROV1 ovarian): 5.07 µM
- GI50 (K-562 leukemia): 1.97 µM
- TGI (K-562 leukemia): 5.25 µM
- GI50 (KM12 colon): 1.47 µM
- TGI (KM12 colon): 2.89 µM
- GI50 (M14 melanoma): 2.3 µM
- TGI (M14 melanoma): 5.05 µM
- GI50 (MALME-3M melanoma): 2 µM
- TGI (MALME-3M melanoma): 3.66 µM
- GI50 (MCF7 breast): 2.55 µM
- TGI (MCF7 breast): 6.08 µM
- GI50 (MDA-MB-231 breast): 1.93 µM
- TGI (MDA-MB-231 breast): 3.56 µM
- GI50 (MDA-MB-435): 1.99 µM
- TGI (MDA-MB-435): 3.75 µM
- GI50 (MOLT-4 leukemia): 1.94 µM
- TGI (MOLT-4 leukemia): 4.87 µM
- GI50 (NCI-H226 lung): 2.19 µM
- TGI (NCI-H226 lung): 4.68 µM
- GI50 (NCI-H23 lung): 2.03 µM
- TGI (NCI-H23 lung): 4.29 µM
- GI50 (NCI-H460 lung): 2.27 µM
- TGI (NCI-H460 lung): 4.9 µM
- GI50 (NCI-H522 lung): 2.2 µM
- TGI (NCI-H522 lung): 4.68 µM
- GI50 (NCI/ADR-RES ovarian): 3.19 µM
- TGI (NCI/ADR-RES ovarian): 10.6 µM
- GI50 (OVCAR-3 ovarian): 1.8 µM
- TGI (OVCAR-3 ovarian): 3.6 µM
- GI50 (OVCAR-4 ovarian): 1.87 µM
- TGI (OVCAR-4 ovarian): 4.8 µM
- GI50 (OVCAR-5 ovarian): 2.25 µM
- TGI (OVCAR-5 ovarian): 4.56 µM
- GI50 (OVCAR-8 ovarian): 3.49 µM
- TGI (OVCAR-8 ovarian): 50.4 µM
- GI50 (PC-3 prostate): 1.92 µM
- TGI (PC-3 prostate): 4.9 µM
- GI50 (RPMI-8226 leukemia): 2.25 µM
- TGI (RPMI-8226 leukemia): 4.65 µM
- GI50 (SF-268 CNS): 1.94 µM
- TGI (SF-268 CNS): 4.28 µM
- GI50 (SF-295 CNS): 1.99 µM
- TGI (SF-295 CNS): 4.59 µM
- GI50 (SF-539 CNS): 2.14 µM
- TGI (SF-539 CNS): 3.97 µM
- GI50 (SK-MEL-2 melanoma): 2.83 µM
- TGI (SK-MEL-2 melanoma): 9.2 µM
- GI50 (SK-MEL-28 melanoma): 1.69 µM
- TGI (SK-MEL-28 melanoma): 3.3 µM
- GI50 (SK-MEL-5 melanoma): 1.8 µM
- TGI (SK-MEL-5 melanoma): 3.27 µM
- GI50 (SK-OV-3 ovarian): 5.02 µM
- TGI (SK-OV-3 ovarian): 19.3 µM
- GI50 (SN12C renal): 2.22 µM
- TGI (SN12C renal): 4.75 µM
- GI50 (SNB-19 CNS): 3.51 µM
- TGI (SNB-19 CNS): 45.2 µM
- GI50 (SNB-75 CNS): 1.88 µM
- TGI (SNB-75 CNS): 3.63 µM
- GI50 (SR leukemia): 1.78 µM
- TGI (SR leukemia): 3.82 µM
- GI50 (SW-620 colon): 2.11 µM
- TGI (SW-620 colon): 4.07 µM
- GI50 (T-47D breast): 2.65 µM
- TGI (T-47D breast): 33.3 µM
- GI50 (TK-10 renal): 2.12 µM
- TGI (TK-10 renal): 3.65 µM
- GI50 (U251 CNS): 2.11 µM
- TGI (U251 CNS): 4.62 µM
- GI50 (UACC-62 melanoma): 1.82 µM
- TGI (UACC-62 melanoma): 3.48 µM

— PubChem BioAssay (NCI)
